Like-named read-outs stand apart in the source and are kept apart here.
What was measured:
Assay type in all cases: physicochemical
[1] = Screening of salt form (salt-forming morphology); settings: for Salt-forming morphology: free base in ethanol plus acid, room temperature, acid-base molar feeding ratio 1:1 (α, unmarked) or 3:1 (β)
Method: The subsequent processing steps were as follows: 1) the turbid system(s) was centrifuged to separate solids; 2) the wall-sticking and gelling system(s) was subjected to cyclic heating and cooling treatment at 25-50° C. (the heating and cooling procedure is shown in Table 5) for the purpose of trying to improve the apparent state/obtain solids; 3) the clear or slightly turbid system(s) was magnetically stirred at 5° C. for about 5 h, and then left to stand at −20° C. overnight for the purpose of trying to collect a sufficient amount of solids for subsequent characterization, and if the amount of solids was still low, slow volatilization at room temperature was performed; if the system(s) was still clear ultimately, anti-solvent addition (n-heptane) or slow volatilization at room temperature was performed. The solids obtained above were centrifuged.

[2] = Observation of isolated solid after filtration; settings: after slurrying with ethyl acetate and filtration, room temperature
Method: The solution of phosphoric acid in methanol was slowly and dropwise added to the solution of the free base in methanol. The mixture was reacted under stirring at 0-5° C. for 4 h. Serious wall sticking was observed. After the methanol was concentrated to dryness, the sticky solid on the wall was scraped by a spatula, slurried with ethyl acetate, and then filtered. […] The oil was dried in an oven at 30° C. for 16 h to obtain a solid. The solid was sampled for purity, content, and acid-base ratio tests. The acid-base ratio is the molar amount of phosphoric acid/the molar amount of bis((N-3-aminopropyl)-(N-(3,4-dimethoxyphenylpropionyl)))aminopropylamine, namely the acid-base molar ratio.

[3] = Crystal form stability of phosphate crystal form A; settings: 2 weeks
Method: The conditions of the X-ray powder diffractometer (XRPD) test were as follows: X-ray powder diffraction data of a sample(s) was collected at ambient conditions using Bruker D2 PHASER X-ray powder diffractometer with an X-ray emitter power of 300 W, a sample stage with no background signal, a step speed of 0.15 s/step, total step of 1837 steps, a step size of 2θ=0.02°, a voltage of 30 kV, and a current of 10 mA. The X-ray tube was a tube of Cu target (Kα) with a Kα2/Kα1 strength ratio of 0.50 (1.54439 Å/1.5406 Å).

[4] = Dynamic solubility in water and biological vehicles at 37° C.; settings: for solubility: thermodynamic from solid, 100 rpm, 1/4/24 h, HPLC
Method: The phosphate was subjected to dynamic solubility tests in water and 3 biological vehicles (simulated gastric juice SGF, simulated fasting intestinal juice FaSSIF, and simulated feeding intestinal juice FeSSIF) at 37° C., and the specific method for the solubility tests were as follows: four samples of 30 mg each were weighed, and added into 3 mL of water and 3 biological solvents separately, and shaken at a constant temperature of 37° C.
The solubility of the phosphate in water/SGF/FaSSIF/FeSSIF was >9 mg/mL. The solubility of samples was determined by HPLC, and specifically, Agilent 1260 Infinity II LC System (equipped with a DAD detector) was used to collect the purity and solubility data of samples. […] The phosphate had good solubility both in water and simulated in-vivo environment.

[5] = Solid stability test at 25° C./60% RH, chemical purity by HPLC; settings: for Change in properties and purity on storage: 5 days and 2 weeks; for Purity (peak area, %) 0 day: initial sample; for Stability (judgement in words): room temperature storage
Method: The stability of a sample(s) was determined by HPLC, and specifically, Agilent 1260 Infinity II LC System (equipped with a DAD detector) was used to collect the purity and solubility data of the sample(s).
To assess the solid stability of different salts, about 15 mg of a sample was weighed into an HPLC vial, and the vial was opened and placed at 25° C./60% RH. The initial sample and the samples stored for 5 days and 2 weeks were subjected to chemical purity assays (HPLC) and hygroscopicity tests. […] The solid phosphate prepared with an acid-base feeding ratio of 1 or 3 was sampled to measure the acid-base ratio, and the test method for the content of phosphate radical ions is shown in Table 2.
(§1) The stability of the samples were determined by HPLC, and specifically, Agilent 1260 Infinity II LC System (equipped with a DAD detector) was used to collect the purity and solubility data of samples. The hygroscopicity of samples was determined according to the method in the Phamacopoeia of the People's Republic of China, and the specific determination method is shown in section “6. Determination of hygroscopicity” of the specification.

[6] = Determination of hygroscopicity (Chinese Pharmacopoeia 2015); settings: 25° C., 80% RH, 24 h; for Hygroscopicity (%): weight gain
Method: The hygroscopicity was determined by referring to the guiding principle of the hygroscopicity test of medicaments in the Phamacopoeia of the People's Republic of China 2015 Edition. The specific test method is as follows: • 1. taking a dried glass weighing bottle with a stopper (outside diameter: 50 mm, height: 15 mm) and placing in a suitable 25° C.±1° C. thermostatic dryer (with a saturated ammonium chloride or ammonium sulfate solution placed in the lower part) or a climatic cabinet (with temperature set at 25° C.±1° C., and relative humidity set at 80%±2%) one day before the test, and accurately weighing the weight (m1). • 2. taking an appropriate amount of a test sample, spreading it in the weighing bottle described above with a thickness of about 1 mm, and accurately weighing the weight (m2). • 3. opening the weighing bottle, and placing it under constant temperature and humidity conditions for 24 h together with the bottle cap. • 4. covering the weighing bottle, and accurately weighing the weight (m3).
as §1

[7] = Stability of free base left at room temperature
[8] = Stability of acid-base ratio on recrystallization in methanol-water or water-methanol; settings: methanol-water or water-methanol recrystallization system

O=C(O)c1ccccc1 [Benzoic acid]
Salt-forming morphology [1]: Oil^#

COc1ccc(CCC(=O)NCCCN(CCCN)CCCNC(=O)CCc2ccc(OC)c(OC)c2)cc1OC.O=P(O)(O)O [Comparative Example 1, bis((N-3-aminopropyl)-(N-(3,4-dimethoxyphenylpropionyl)))aminopropylamine phosphate]
Hygroscopic behaviour of solid after filtration [2]: extremely hygroscopic and quickly turned into an oil

COc1ccc(CCC(=O)N(CCCN)CCCNCCCN(CCCN)C(=O)CCc2ccc(OC)c(OC)c2)cc1OC [Example 7, bis((N-3-aminopropyl)-(N-(3,4-dimethoxyphenylpropionyl)))aminopropylamine phosphate]
Change in crystal form after storage ([3]; 25° C./60% RH): no change in crystal form | Change in crystal form after storage ([3]; 60° C.): no change in crystal form | Change in crystal form after storage ([3]; 80° C.): no change in crystal form | Change in crystal form after storage ([3]; illumination): no change in crystal form

O=C(O)/C=C/C(=O)O [Fumaric acid]
Salt-forming morphology [1]: Gel^#

O=C(O)c1cc(O)ccc1O [Gentisic acid]
Salt-forming morphology [1]: Gel^†

O=C(O)CNC(=O)c1ccccc1 [Hippuric acid]
Salt-forming morphology [1]: Oil^#

O=C(O)[C@H](O)[C@@H](O)C(=O)O [L-tartaric acid]
Salt-forming morphology [1]: Solid^※ | State of solid after being sealed and placed at room temperature ([1]; sealed, 1 week): gelled

O=C(O)/C=C\C(=O)O [Maleic acid]
Salt-forming morphology [1]: Gel^#

CS(=O)(=O)O [Methanesulfonic acid]
Salt-forming morphology [1]: Gel*

O=C(O)CCC(=O)O [Succinic acid]
Salt-forming morphology [1]: Gel*

COc1ccc(CCC(=O)N(CCCN)CCCNCCCN(CCCN)C(=O)CCc2ccc(OC)c(OC)c2)cc1OC [bis((N-3-aminopropyl)-(N-(3,4-dimethoxyphenylpropionyl)))aminopropylamine phosphate]
solubility ([4]; simulated fasting intestinal juice (FaSSIF), fassif, simulated fasting intestinal juice, read-out: Solubility in FaSSIF): > 9000 µg/mL | solubility ([4]; simulated feeding intestinal juice (FeSSIF), fessif, simulated feeding intestinal juice, read-out: Solubility in FeSSIF): > 9000 µg/mL | solubility ([4]; simulated gastric juice (SGF), simulated gastric fluid, simulated gastric juice, read-out: Solubility in SGF): > 9000 µg/mL | solubility ([4]; water, 30 mg in 3 mL, read-out: Solubility in water): > 9000 µg/mL | pH value change during dynamic solubility test ([4]; within 24 h): did not change | Change in properties and purity on storage ([5]; 25° C./60% RH, open vial): no obvious change in properties and purity | Purity (peak area, %) 0 day ([5]; 25° C./60% RH, open vial, HPLC): 99.56% | Stability (judgement in words) [5]: good stability | Hygroscopicity class [6]: slightly hygroscopic | Hygroscopicity (%) [6]: 1.29%

COc1ccc(CCC(=O)NCCCN(CCCN)CCCNC(=O)CCc2ccc(OC)c(OC)c2)cc1OC [free base, bis((N-3-aminopropyl)-(N-(3,4-dimethoxyphenylpropionyl)))aminopropylamine]
Purity before storage ([7]; initial): 97.56% | Purity after left at room temperature for 7 days ([7]; room temperature, 7 days): 73.73%

Cc1ccc(S(=O)(=O)O)cc1 [p-Toluene sulfonic acid]
Salt-forming morphology [1]: Gel*

Oxalate
Hygroscopicity class [6]: extremely hygroscopic | Hygroscopicity (%) [6]: 18.62% | Salt-forming morphology [1]: Solid

bis((N-3-aminopropyl)-(N-(3,4-dimethoxyphenylpropionyl)))aminopropylamine hydrochloride [Hydrochloride^α]
Hygroscopicity class [6]: extremely hygroscopic | Hygroscopicity (%) [6]: 24.7%

bis((N-3-aminopropyl)-(N-(3,4-dimethoxyphenylpropionyl)))aminopropylamine phosphate
Change of acid-base ratio after recrystallization [8]: more than 10% | Purity (peak area, %) 2 weeks ([5]; 25° C./60% RH, open vial, 2 weeks, HPLC): 99.24% | Change in properties and purity on storage ([5]; 25° C./60% RH, open vial): change into liquid from powdery solid | Purity (peak area, %) 5 days ([5]; 25° C./60% RH, open vial, 5 days, HPLC): 99.41% | Purity (peak area, %) 0 day ([5]; 25° C./60% RH, open vial, HPLC): 99.45% | Stability (judgement in words) [5]: poor stability | Hygroscopicity class [6]: extremely hygroscopic | Hygroscopicity (%) [6]: 18.05%

Source: patent publication US20260193171A1, “PHARMACEUTICAL SALT OF POLYAMINE DERIVATIVE, CRYSTAL FORM THEREOF, AND PREPARATION METHOD THEREFOR” (WUHAN WUYAO SCI & TECH CO., LTD, priority 2022, published 2026)
